What was measured:
[1] = system: free testosterone concentration; settings: after 24 weeks of daily 150 mg CASODEX alone; prostate cancer; cited from earlier work
total testosterone = settings: bicalutamide single agent therapy, humans; cited from earlier work
[2] = system: testosterone, LH, oestradiol, FSH levels; settings: cited from earlier work

Description for free testosterone levels: The following clinical trial was performed to determine the effect of the administration of CASODEX™ together with ARIMIDEX™ on free testosterone levels in healthy male volunteers over a 6 week period.
Dosage: The CASODEX™ was administered daily at a dose of 150 mg and the ARIMIDEX™ was administered daily at a dose of 1 mg. All treatments were in tablet form and taken once daily. Daily treatment with CASODEX™ was for 6 weeks, and with ARIMIDEX™ for the final 2 weeks of this period. The treatment periods were selected as the minimum time to attain steady-state plasma concentrations for the drugs.
Key Assessment: Free testosterone concentrations were measured during the course of the trial.

SMILES: CC(O)(CS(=O)(=O)c1ccc(F)cc1)C(=O)Nc1ccc(C#N)c(C(F)(F)F)c1 (stereo not drawn) [CASODEX, 4′-cyano-α′,α′, α′-trifluoro-3-(4-fluorophenylsulphonyl)-2-hydroxy-2-methylpropiono-m-toluidide]
- Increase in mean free testosterone concentration (free testosterone levels; CASODEX alone, end of the treatment period (4 weeks)): 58%
- Free testosterone, ratio to Day 1 (free testosterone levels; Day 29, CASODEX 150 mg daily alone): 1.58
- Free testosterone concentration, gmean (free testosterone levels; Day 29, CASODEX 150 mg daily alone (up to week 4), n=7): 0.076 nmol/1
- Increase in mean free testosterone concentration [1]: 57%
- Change in basal level of total testosterone (total testosterone): approximate doubling

SMILES: CC/C(=C(\c1ccccc1)c1ccc(OCCN(C)C)cc1)c1ccccc1 [tamoxifen]
- Effect on mean serum testosterone, oestradiol, LH levels, LH pulse frequency and amplitude ([2]; 13 normal men, 6 week period (Spijkstra et al)): An increase
- Effect on basal serum levels of LH, oestradiol and testosterone ([2]; administration to men (Lewis-Jones et al)): elevates the basal serum levels
- Effect on testosterone and LH ([2]; intake in adult men (Comhaire et al)): increase testosterone and LH
- Effect on basal LH, FSH and testosterone levels ([2]; three months' treatment, normogonadotrophic oligozoospermic men (van Bergeijk et al)): stimulated basal LH, FSH and testosterone levels

Source: patent US20030114519A1, “Pharmaceutical combination of bicalutamide and anastrozole for providing an anti-androgenic effect and aromatase inhibition” (priority 2002, published 2003)
